Where two headings read alike, the source gives them in different places.
Legend:
Type in all cases: physicochemical
[1] = Chemical stability in pharmaceutical compositions (excipient mixtures with 10% compound (1))
Procedure: To test the chemical stability, i.e. compatibility of different crystalline forms of compound (1), solid multi component mixtures were prepared comprising well established excipients used for solid oral dosage form and having different functions therein. The single components of each mixture were exactly weighed and intensively triturated using a mortar and a pestle.
10 g of the final mixtures were separately filled into glass vials (open or closed) and stored under the conditions outlined below in table 13. Samples were taken and analyzed initially and after 1, 2 and 3 months with respect to the content of compound (1) within the mixtures.

[2] = Dynamic vapor sorption (DVS), hygroscopicity
Procedure: Crystalline forms were characterized by dynamic vapor sorption (DVS) using a Porotec DVS 1000 or a SMS DVS Intrinsic water vapor sorption analyzer. For the DVS analysis, a step width of 10% r.h. was applied allowing the samples to equilibrate and reach weight constancy (±0.002%) for at least 10 min on each step. All measurements were performed according to the following program: 50% r.h.→90% r.h., 90→0% r.h., 0%→90% r.h., 90%→50% r.h. A cycle with increasing humidity is also known as a sorption cycle, a cycle with decreasing humidity is also known as a desorption cycle. The details of the respective DVS measurements are shown below in table 51 and discussed further below.
The hygroscopicity of the respective crystalline forms determined via the DVS measurements was classified according to the ranges for mass increase defined in the European Pharmacopoeia: very hygroscopic (vh): increase of the mass ≧15%; hygroscopic (h): increase of the mass is less than 15% and equal or greater than 2%; slightly hygroscopic (sh): increase of the mass is less than 2% and equal or greater than 0.2%; not hygroscopic (nh): increase of the mass is less than 0.2%; deliquescent (d): sufficient water is absorbed to form a liquid.

[3] = Slurry of a single crystalline form in solvent, resulting form by XRPD
Procedure: A quantity of compound (1) is charged into a vial or flask and an amount of solvent is added. The resulting suspension/solution is stirred (e.g. orbital shaker or overhead-stirrer) for a given time at a specific temperature. Subsequently, if the suspension/solution was stirred at an elevated temperature, it is allowed to cool to room temperature or any other predetermined temperature to precipitate or crystallize the product and the solvent is removed by filtration.
The vial was closed and the mixture (a white suspension) was stirred (by means of shaking, 400 rpm, PLS Synthesiser) at room temperature (22±2° C.) for 13 days.
The solid was separated using a suction filter and dried by applying an air flow for additional 5 to 30 minutes (until the solid appeared to be dry).
The vial was closed and the suspension was stirred (by means of shaking, PLS shaker, 400 rpm) at an elevated temperature (40° C.±2) for 20 h.
The mixture was cooled to 20±2° C. The solid was separated using a suction filter (G4) and dried by applying an air flow until the sample appeared to be dry. The white solid was subsequently left for 1 h at ambient conditions.

[4] = Interconversion/slurry experiments of mixed crystalline forms in 2-propanol (XRPD); conditions: conclusion from the interconversion experiments in 2-Propanol
Procedure: About 25 mg of a specific crystalline form of compound (1) and 25 mg of the same or another crystalline form of compound (1) were charged into a vial and 1.0 mL of 2-Propanol was added. The vials were closed and the mixtures were stirred (via shaking using an Eppendorf Thermomixer, starting with 750 rpm, increased to 1000 rpm after 1 day) at an elevated temperature (30±2° C.) for 7 days. Subsequently the mixtures were cooled to 20±2° C. and stirred for an additional 2 hours.
The solids were then separated via filtration using a suction filter. To dry the thus obtained solid material an air flow was applied for 2 to 3 hours.
The crystalline form of the obtained materials was determined using XRPD. The experiments are summarized below in table 2 below.
A mixture of two different crystalline forms of compound (1) was charged into a vial and 1.0 mL of 2-Propanol was added (details see table).
The vials were closed and the mixtures were stirred (by means of shaking, Eppendorf Thermomixer, 750 rpm at first, increased to 1000 rpm after 1 d) at elevated temperature (30±2° C.) for 7 days.
Subsequently, the mixtures were cooled to 20±2° C. and stirred for additional 2 hours.
The solids were then isolated via filtration using a suction filter. The air flow from the suction pump was applied for 2 to 3 hours to dry the isolated solid.

[5] = Chemical stability of crystalline forms, open-vial storage (content by HPLC, crystalline form by XRPD)
Procedure: Samples of compound 1 in different crystalline forms were stored in open vials under controlled conditions at different temperatures and rel. humidities for 28 days. Prior to storage and after 14 and 28 days the content of compound (1) in the sample was determined via HPLC and the crystalline form was measured via XRPD.

[6] = Stability of crystalline form B on drying at reduced pressure; conditions: dried at 50±2° C., about 7 mBar, 72 hours
Procedure: The samples were let to cool to room temperature under ambient conditions before they were analyzed.

In the case of `CN(C)[C@]1(c2cccc(F)c2)CC[C@]2(CC1)c1[nH]c3ccccc3c1CCN2C(=O)/C=C/c1ccccc1` [crystalline form A, cis-(E)-4-(3-Fluorophenyl)-2′,3′,4′,9′-tetrahydro-N,N-dimethyl-2′-(1-oxo-3-phenyl-2-propenyl)-spiro[cyclohexane-1,1′[1H]-pyrido[3,4-b]indol]-4-amine], the “content of compound (1) within the mixture” value (shortened to “content of compound”) ([1]; Lactose monohydrate, PVP25, Crospovidone, Talcum, 40° C., 75% rel. hum., 0 month, listed as A) is reported as 99.66, the “content of compound” value ([1]; Lactose monohydrate, PVP25, Crospovidone, Talcum, 40° C., 75% rel. hum., 1 month, listed as A) is reported as 99.93 and the “content of compound” value ([1]; Lactose monohydrate, PVP25, Crospovidone, Talcum, 40° C., 75% rel. hum., 2 months, listed as A) is reported as 99.72. The “content of compound” value ([1]; Lactose monohydrate, PVP25, Crospovidone, Talcum, 40° C., 75% rel. hum., 3 months, listed as A) was 99.86, the “content of compound” value ([1]; Lactose monohydrate, PVP25, Crospovidone, Talcum, 50° C. dry, 0 month, listed as A) was 99.66 and the “content of compound” value ([1]; Lactose monohydrate, PVP25, Crospovidone, Talcum, 50° C. dry, 1 month, listed as A) was 99.58. For the same compound, the “content of compound” value ([1]; Lactose monohydrate, PVP25, Crospovidone, Talcum, 50° C. dry, 2 months, listed as A) was 99.54, the “content of compound” value ([1]; Lactose monohydrate, PVP25, Crospovidone, Talcum, 50° C. dry, 3 months, listed as A) was 99.56 and the “content of compound” value ([1]; Microcrystalline cellulose, HPMC 6 mPas, L-HPC LH21, magnesium stearate, 40° C., 75% rel. hum., 0 month, listed as A) was 90.64. For the same compound, the “content of compound” value ([1]; Microcrystalline cellulose, HPMC 6 mPas, L-HPC LH21, magnesium stearate, 40° C., 75% rel. hum., 1 month, listed as A) was 99.61, the “content of compound” value ([1]; Microcrystalline cellulose, HPMC 6 mPas, L-HPC LH21, magnesium stearate, 40° C., 75% rel. hum., 2 months, listed as A) was 99.60 and the “content of compound” value ([1]; Microcrystalline cellulose, HPMC 6 mPas, L-HPC LH21, magnesium stearate, 40° C., 75% rel. hum., 3 months, listed as A) was 99.66. For the same compound, the “content of compound” value ([1]; Microcrystalline cellulose, HPMC 6 mPas, L-HPC LH21, magnesium stearate, 50° C. dry, 0 month, listed as A) was 99.64, the “content of compound” value ([1]; Microcrystalline cellulose, HPMC 6 mPas, L-HPC LH21, magnesium stearate, 50° C. dry, 1 month, listed as A) was 99.59 and the “content of compound” value ([1]; Microcrystalline cellulose, HPMC 6 mPas, L-HPC LH21, magnesium stearate, 50° C. dry, 2 months, listed as A) was 99.59. The “content of compound” value ([1]; Microcrystalline cellulose, HPMC 6 mPas, L-HPC LH21, magnesium stearate, 50° C. dry, 3 months, listed as A) was 99.62, the “change in mass with increasing/decreasing relative humidity” value [2] was −0.2 to 0.1% and the hysteresis [2] was no more than 0.5%. For the same compound, the hygroscopicity ([2]; classes of European Pharmacopoeia) was “not hygroscopic or just slightly hygroscopic”, the resulting crystalline form ([3]; suspension in ethanol, 40° C.±2, 20 h) was “crystalline form A” and the resulting crystalline form ([3]; suspension in ethylacetate/water 70:30, room temperature (22±2° C.), 13 days) was “crystalline form A”. For the same compound, the “thermodynamic stability relative to the other crystalline forms” value [4] was “thermodynamically more stable than the other crystalline forms”, the “Content cmpd (1)” value ([5]; 40° C., 75% r.H., storage 0 d, listed as A) was 99.58% and the “Content cmpd (1)” value ([5]; 40° C., 75% r.H., storage 14 d, listed as A) was 99.63%. For the same compound, the “Content cmpd (1)” value ([5]; 40° C., 75% r.H., storage 28 d, listed as A) was 99.39%, the “Content cmpd (1)” value ([5]; 50° C., storage 0 d, listed as A) was 99.58% and the “Content cmpd (1)” value ([5]; 50° C., storage 14 d, listed as A) was 99.49%. For the same compound, the “Content cmpd (1)” value ([5]; 50° C., storage 28 d, listed as A) was 99.37%.

With `CN(C)[C@]1(c2cccc(F)c2)CC[C@]2(CC1)c1[nH]c3ccccc3c1CCN2C(=O)/C=C/c1ccccc1` [crystalline form B, cis-(E)-4-(3-Fluorophenyl)-2′,3′,4′,9′-tetrahydro-N,N-dimethyl-2′-(1-oxo-3-phenyl-2-propenyl)-spiro[cyclohexane-1,1′[1H]-pyrido[3,4-b]indol]-4-amine] the “content of compound” value ([1]; Lactose monohydrate, PVP25, Crospovidone, Talcum, 40° C., 75% rel. hum., 0 month, listed as B) was 99.57, the “content of compound” value ([1]; Lactose monohydrate, PVP25, Crospovidone, Talcum, 40° C., 75% rel. hum., 1 month, listed as B) was 99.22 and the “content of compound” value ([1]; Lactose monohydrate, PVP25, Crospovidone, Talcum, 40° C., 75% rel. hum., 2 months, listed as B) was 99.05. The “content of compound” value ([1]; Lactose monohydrate, PVP25, Crospovidone, Talcum, 40° C., 75% rel. hum., 3 months, listed as B) was 96.87, the “content of compound” value ([1]; Lactose monohydrate, PVP25, Crospovidone, Talcum, 50° C. dry, 0 month, listed as B) was 99.57 and the “content of compound” value ([1]; Lactose monohydrate, PVP25, Crospovidone, Talcum, 50° C. dry, 1 month, listed as B) was 95.82. For the same compound, the “content of compound” value ([1]; Lactose monohydrate, PVP25, Crospovidone, Talcum, 50° C. dry, 2 months, listed as B) was 91.04, the “content of compound” value ([1]; Lactose monohydrate, PVP25, Crospovidone, Talcum, 50° C. dry, 3 months, listed as B) was 85.33 and the “content of compound” value ([1]; Microcrystalline cellulose, HPMC 6 mPas, L-HPC LH21, magnesium stearate, 40° C., 75% rel. hum., 0 month, listed as B) was 99.69. For the same compound, the “content of compound” value ([1]; Microcrystalline cellulose, HPMC 6 mPas, L-HPC LH21, magnesium stearate, 40° C., 75% rel. hum., 1 month, listed as B) was 99.53, the “content of compound” value ([1]; Microcrystalline cellulose, HPMC 6 mPas, L-HPC LH21, magnesium stearate, 40° C., 75% rel. hum., 2 months, listed as B) was 98.57 and the “content of compound” value ([1]; Microcrystalline cellulose, HPMC 6 mPas, L-HPC LH21, magnesium stearate, 40° C., 75% rel. hum., 3 months, listed as B) was 99.39. For the same compound, the “content of compound” value ([1]; Microcrystalline cellulose, HPMC 6 mPas, L-HPC LH21, magnesium stearate, 50° C. dry, 0 month, listed as B) was 99.75, the “content of compound” value ([1]; Microcrystalline cellulose, HPMC 6 mPas, L-HPC LH21, magnesium stearate, 50° C. dry, 1 month, listed as B) was 95.74 and the “content of compound” value ([1]; Microcrystalline cellulose, HPMC 6 mPas, L-HPC LH21, magnesium stearate, 50° C. dry, 2 months, listed as B) was 91.45. For the same compound, the “content of compound” value ([1]; Microcrystalline cellulose, HPMC 6 mPas, L-HPC LH21, magnesium stearate, 50° C. dry, 3 months, listed as B) was 87.34, the resulting crystalline form [6] was “crystalline form B” and the hysteresis ([2]; between 10% to 40% relative humidity) was greater than 0.5%. The “Content cmpd (1)” value ([5]; 40° C., 75% r.H., storage 0 d, listed as B) was 84.85%, the “Content cmpd (1)” value ([5]; 40° C., 75% r.H., storage 14 d, listed as B) was 84.21% and the “Content cmpd (1)” value ([5]; 40° C., 75% r.H., storage 28 d, listed as B) was 83.74%. For the same compound, the “Content cmpd (1)” value ([5]; 50° C., storage 0 d, listed as B) was 84.85%, the “Content cmpd (1)” value ([5]; 50° C., storage 14 d, listed as B) was 82.63% and the “Content cmpd (1)” value ([5]; 50° C., storage 28 d, listed as B) was 81.26%.

— patent publication US9296749B2, “Crystalline cis-(E)-4-(3-fluorophenyl)-2′,3′,4′,9′-tetrahydro-N,N-dimethyl-2′-(1-oxo-3-phenyl-2-propenyl)-spiro[cyclohexane-1,1′[1H]” (priority 2013, dated 2016)
